Test [1] addresses T1, AAK1 (Homo sapiens, UniProt Q2M2I8).
T1 construct: HA; expressed in transfected cells; host or cells: HEK293F
Nature of the test: P81 filter plate assay. Particulars: full-length human AAK1, Mu2 substrate. Format: biochemical.

Test [2] deals with T1, AAK1. Nature of the test: HEK281 cell-based assay (phospho-mu2 Western blot in transfected HEK293F cells). The settings on record: 3 hours incubation, read-out: CBA IC50. The method in brief:
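After 3 hours at 37° C. with compound (five 3-fold-spaced concentrations, DMEM+0.5% FBS), transiently transfected HEK293F cells expressing full-length human AAK1 and Flag-tagged mu2 were lysed. mu2 phosphorylation was read by anti-phospho-mu2 immunoblot, normalized against total mu2 by anti-Flag blot.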

T1 sequence (Q2M2I8 1-863 isoform Q2M2I8-2): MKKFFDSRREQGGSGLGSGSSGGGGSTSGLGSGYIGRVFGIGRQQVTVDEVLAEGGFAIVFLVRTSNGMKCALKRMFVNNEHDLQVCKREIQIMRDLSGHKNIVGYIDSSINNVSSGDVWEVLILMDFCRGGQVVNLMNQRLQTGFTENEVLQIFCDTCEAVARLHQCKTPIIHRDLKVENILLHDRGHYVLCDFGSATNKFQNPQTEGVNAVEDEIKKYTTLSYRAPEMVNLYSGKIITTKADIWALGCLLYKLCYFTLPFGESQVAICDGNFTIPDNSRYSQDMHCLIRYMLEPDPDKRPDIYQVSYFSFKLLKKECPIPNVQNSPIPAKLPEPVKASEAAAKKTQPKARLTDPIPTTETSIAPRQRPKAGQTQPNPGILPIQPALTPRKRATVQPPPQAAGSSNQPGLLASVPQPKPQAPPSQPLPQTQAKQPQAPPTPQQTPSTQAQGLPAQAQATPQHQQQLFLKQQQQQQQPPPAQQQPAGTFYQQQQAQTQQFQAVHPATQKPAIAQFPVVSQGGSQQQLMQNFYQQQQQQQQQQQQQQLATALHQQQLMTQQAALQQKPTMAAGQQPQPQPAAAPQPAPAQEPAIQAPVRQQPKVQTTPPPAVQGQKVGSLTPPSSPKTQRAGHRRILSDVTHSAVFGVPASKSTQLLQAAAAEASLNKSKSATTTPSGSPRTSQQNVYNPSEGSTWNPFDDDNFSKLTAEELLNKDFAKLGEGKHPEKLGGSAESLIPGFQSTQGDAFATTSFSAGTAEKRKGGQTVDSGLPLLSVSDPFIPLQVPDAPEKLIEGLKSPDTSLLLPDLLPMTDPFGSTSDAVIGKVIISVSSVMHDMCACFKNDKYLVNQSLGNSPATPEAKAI

For the compound `CC(C)CC(=O)N1CCC[C@H]1CNc1ccc2ncc(-c3cccc(F)c3)n2n1` [(S)-1-(2-(((3-(3-fluorophenyl)imidazo[1,2-b]pyridazin-6-yl)amino)methyl)pyrrolidin-1-yl)-3-methylbutan-1-one], the IC50 at AAK1 [1] and on AAK1 [2] was at most 0.01 µM in each case.
Take `COc1cccc(-c2cnc3ccc(NC[C@@H]4CCCN4C(=O)CC(C)C)nn23)c1` [(S)-1-(2-(((3-(3-methoxyphenyl)imidazo[1,2-b]pyridazin-6-yl)amino)methyl)pyrrolidin-1-yl)-3-methylbutan-1-one]: the concentration for half-maximal inhibition (IC50) was at most 0.01 µM against AAK1 [1] and at most 0.1 µM at AAK1 [2].
For `CC(C)(C)C(=O)N1CCC[C@H]1CNc1ccc2ncc(-c3ccc(CN)cc3)n2n1` [(S)-1-(2-(((3-(4-(aminomethyl)phenyl)imidazo[1,2-b]pyridazin-6-yl)amino)methyl)pyrrolidin-1-yl)-2,2-dimethylpropan-1-one], in that order: at most 0.01 µM and at most 0.1 µM.
With `CC(C)(C)CC(=O)N1CCC[C@H]1CNc1ccc2ncc(-c3ccc(CN)cc3)n2n1` [(S)-1-(2-(((3-(4-(aminomethyl)phenyl)imidazo[1,2-b]pyridazin-6-yl)amino)methyl)pyrrolidin-1-yl)-3,3-dimethylbutan-1-one], the half-maximal inhibitory concentration (IC50) is at most 0.01 µM against AAK1 [1] and at most 0.1 µM at AAK1 [2].
Take `CCCC(=O)N1CCC[C@H]1CNc1ccc2ncc(-c3ccc(CN)cc3)n2n1` [(S)-1-(2-(((3-(4-(aminomethyl)phenyl)imidazo[1,2-b]pyridazin-6-yl)amino)methyl)pyrrolidin-1-yl)butan-1-one]: the half-maximal inhibitory concentration (IC50) at AAK1 [1] and on AAK1 [2] was at most 0.01 µM throughout.
As to `CC(C)CC(=O)N1CCC[C@H]1CNc1ccc2ncc(-c3ccc(F)cc3)n2n1` [(S)-1-(2-(((3-(4-fluorophenyl)imidazo[1,2-b]pyridazin-6-yl)amino)methyl)pyrrolidin-1-yl)-3-methylbutan-1-one], the IC50 against AAK1 [1] was at most 0.01 µM; at AAK1 [2], at most 0.1 µM.
The matching figures for `COc1ccc(-c2cnc3ccc(NC[C@@H]4CCCN4C(=O)CC(C)C)nn23)cc1` [(S)-1-(2-(((3-(4-methoxyphenyl)imidazo[1,2-b]pyridazin-6-yl)amino)methyl)pyrrolidin-1-yl)-3-methylbutan-1-one]: at most 0.01 µM and at most 1 µM.
Turning to `COc1ncccc1-c1cnc2ccc(NC[C@@H]3CCC(=O)N3CCC(C)(C)C)nn12` [(S)-1-(3,3-dimethylbutyl)-5-(((3-(2-methoxypyridin-3-yl)imidazo[1,2-b]pyridazin-6-yl)amino)methyl)pyrrolidin-2-one], the IC50 against AAK1 [1] and on AAK1 [2] was at most 0.01 µM throughout.
Turning to `CC(C)(C)CCN1C(=O)CC[C@H]1CNc1ccc2ncc(-c3ccccc3)n2n1` [(S)-1-(3,3-dimethylbutyl)-5-(((3-phenylimidazo[1,2-b]pyridazin-6-yl)amino)methyl)pyrrolidin-2-one], the results for the IC50 on AAK1 [1] and at AAK1 [2] were at most 0.01 µM and at most 1 µM, respectively.
Consider `CC(=O)c1cnc2ccc(N3CCN(C(=O)[C@@H](N)C(C)C)CC3)nn12` [(S)-1-(4-(3-acetylimidazo[1,2-b]pyridazin-6-yl)piperazin-1-yl)-2-amino-3-methylbutan-1-one], for which the IC50 was at most 0.01 µM at AAK1 [1] and at most 0.1 µM at AAK1 [2].
Regarding `CC1(OC(=O)N2CCC[C@H]2CNc2ccc3ncc(Br)n3n2)CCCC1` [(S)-1-methylcyclopentyl 2-(((3-bromoimidazo[1,2-b]pyridazin-6-yl)amino)methyl)pyrrolidine-1-carboxylate], the IC50 is at most 0.01 µM against AAK1 [1] and at most 1 µM at AAK1 [2].
For `COc1ncccc1-c1cnc2ccc(N3CC[C@H](N(C)C(=O)OCC(F)(F)F)C3)nn12` [(S)-2,2,2-trifluoroethyl (1-(3-(2-methoxypyridin-3-yl)imidazo[1,2-b]pyridazin-6-yl)pyrrolidin-3-yl)(methyl)carbamate], the IC50 on AAK1 [1] was at most 0.01 µM; at AAK1 [2], at most 0.1 µM.
With `CC(C)(C)NC(=O)N1CCC[C@H]1CNc1ccc2ncc(Br)n2n1` [(S)-2-(((3-bromoimidazo[1,2-b]pyridazin-6-yl)amino)methyl)-N-(tert-butyl)pyrrolidine-1-carboxamide], the figures for the IC50 against AAK1 [1] and at AAK1 [2] were at most 0.01 µM and at most 0.1 µM, respectively.
The matching figures for `COc1ncccc1-c1cnc2ccc(N3CCN(C(=O)[C@@H](N)CC(C)C)CC3)nn12` [(S)-2-amino-1-(4-(3-(2-methoxypyridin-3-yl)imidazo[1,2-b]pyridazin-6-yl)piperazin-1-yl)-4-methylpentan-1-one]: at most 0.01 µM and at most 0.01 µM.
`O=C(CC(F)(F)F)N1CCC[C@H]1CNc1ccc2ncc(-c3ccccc3)n2n1` [(S)-3,3,3-trifluoro-1-(2-(((3-phenylimidazo[1,2-b]pyridazin-6-yl)amino)methyl)pyrrolidin-1-yl)propan-1-one]: the 50% inhibitory concentration (IC50) against AAK1 [1] and at AAK1 [2] was at most 0.01 µM in each case.
Turning to `CC(C)(C)CC(=O)N1CCC[C@H]1CNc1ccc2ncc(-c3ccncc3)n2n1` [(S)-3,3-dimethyl-1-(2-(((3-(pyridin-4-yl)imidazo[1,2-b]pyridazin-6-yl)amino)methyl)pyrrolidin-1-yl)butan-1-one], the IC50 is at most 0.01 µM against AAK1 [1] and at most 0.1 µM at AAK1 [2].
In the case of `CC(C)CC(=O)N1CCC[C@H]1CNc1ccc2ncc(-c3cccc(C#N)c3)n2n1` [(S)-3-(6-(((1-(3-methylbutanoyl)pyrrolidin-2-yl)methyl)amino)imidazo[1,2-b]pyridazin-3-yl)benzonitrile], the half-maximal inhibitory concentration (IC50) against AAK1 [1] was at most 0.01 µM; on AAK1 [2], at most 0.1 µM.
Regarding `Cc1cc(-c2cnc3ccc(NC[C@@H]4CCCN4C(=O)CC(C)C)nn23)ccn1` [(S)-3-methyl-1-(2-(((3-(2-methylpyridin-4-yl)imidazo[1,2-b]pyridazin-6-yl)amino)methyl)pyrrolidin-1-yl)butan-1-one], the 50% inhibitory concentration (IC50) at AAK1 [1] was at most 0.01 µM; at AAK1 [2] it was at most 0.1 µM.
Turning to `Cc1cccc(-c2cnc3ccc(NC[C@@H]4CCCN4C(=O)CC(C)C)nn23)c1` [(S)-3-methyl-1-(2-(((3-(m-tolyl)imidazo[1,2-b]pyridazin-6-yl)amino)methyl)pyrrolidin-1-yl)butan-1-one], the IC50 was at most 0.01 µM against AAK1 [1] and at most 1 µM at AAK1 [2].
Turning to `CC(C)CC(=O)N1CCC[C@H]1CNc1ccc2ncc(-c3ccccc3)n2n1` [(S)-3-methyl-1-(2-(((3-phenylimidazo[1,2-b]pyridazin-6-yl)amino)methyl)pyrrolidin-1-yl)butan-1-one], the concentration for half-maximal inhibition (IC50) against AAK1 [1] was at most 0.01 µM; on AAK1 [2], at most 0.1 µM.
`CC(C)CC(=O)N1CCC[C@H]1CNc1ccc2ncc(-c3ccc(C#N)cc3)n2n1` [(S)-4-(6-(((1-(3-methylbutanoyl)pyrrolidin-2-yl)methyl)amino)imidazo[1,2-b]pyridazin-3-yl)benzonitrile]: the IC50 at AAK1 [1] and at AAK1 [2] was at most 0.01 µM each time.
Regarding `CC(C)(C)CCN1C(=O)CC[C@H]1CNc1ccc2ncc(-c3ccc(CN)cc3)n2n1` [(S)-5-(((3-(4-(aminomethyl)phenyl)imidazo[1,2-b]pyridazin-6-yl)amino)methyl)-1-(3,3-dimethylbutyl)pyrrolidin-2-one], the 50% inhibitory concentration (IC50) is at most 0.01 µM against AAK1 [1] and at most 0.1 µM on AAK1 [2].
As to `CC(C)CCN1C(=O)CC[C@H]1CNc1ccc2ncc(-c3ccc(CN)cc3)n2n1` [(S)-5-(((3-(4-(aminomethyl)phenyl)imidazo[1,2-b]pyridazin-6-yl)amino)methyl)-1-isopentylpyrrolidin-2-one], the IC50 against AAK1 [1] was at most 0.01 µM; on AAK1 [2] it was at most 0.1 µM.
Regarding `CC(C)(C)CCN1C(=O)CC[C@H]1CNc1ccc2ncc(Br)n2n1` [(S)-5-(((3-bromoimidazo[1,2-b]pyridazin-6-yl)amino)methyl)-1-(3,3-dimethylbutyl)pyrrolidin-2-one], the IC50 against AAK1 [1] was at most 0.01 µM; on AAK1 [2] it was at most 0.1 µM.
For the compound `COc1ccccc1-c1cnc2ccc(NC[C@@H]3CCCN3C(=O)NC(C)(C)C)nn12` [(S)-N-(tert-butyl)-2-(((3-(2-methoxyphenyl)imidazo[1,2-b]pyridazin-6-yl)amino)methyl)pyrrolidine-1-carboxamide], the IC50 is at most 0.01 µM against AAK1 [1] and at most 0.1 µM on AAK1 [2].
The matching figures for `CC(C)(C)NC(=O)N1CCC[C@H]1CNc1ccc2ncc(-c3ccncc3)n2n1` [(S)-N-(tert-butyl)-2-(((3-(pyridin-4-yl)imidazo[1,2-b]pyridazin-6-yl)amino)methyl)pyrrolidine-1-carboxamide]: at most 0.01 µM and at most 0.1 µM.
Take `CC(C)(C)NC(=O)N1CCC[C@H]1CNc1ccc2ncc(-c3ccccc3)n2n1` [(S)-N-(tert-butyl)-2-(((3-phenylimidazo[1,2-b]pyridazin-6-yl)amino)methyl)pyrrolidine-1-carboxamide]: the IC50 against AAK1 [1] is at most 0.01 µM; on AAK1 [2] it was at most 0.1 µM.
In the case of `COc1ccccc1-c1cnc2ccc(NC[C@@H]3CCCN3C(=O)NC3CCCC3)nn12` [(S)-N-cyclopentyl-2-(((3-(2-methoxyphenyl)imidazo[1,2-b]pyridazin-6-yl)amino)methyl)pyrrolidine-1-carboxamide], the half-inhibitory concentration (IC50) against AAK1 [1] is at most 0.01 µM; at AAK1 [2], at most 1 µM.
The matching figures for `CC(C)(C)CNC(=O)N1CCC[C@H]1CNc1ccc2ncc(-c3ccccc3)n2n1` [(S)-N-neopentyl-2-(((3-phenylimidazo[1,2-b]pyridazin-6-yl)amino)methyl)pyrrolidine-1-carboxamide]: at most 0.01 µM and at most 0.1 µM.
As for `CC(C)(C)OC(=O)N1CCC[C@H]1CNc1ccc2ncc(C(F)F)n2n1` [(S)-Tert-butyl 2-(((3-(difluoromethyl)imidazo[1,2-b]pyridazin-6-yl)amino)methyl)pyrrolidine-1-carboxylate], the half-maximal inhibitory concentration (IC50) is at most 0.01 µM against AAK1 [1] and at most 1 µM at AAK1 [2].
For `COc1ccccc1-c1cnc2ccc(NC[C@@H]3CCCN3C(=O)OC3CCC3)nn12` [(S)-cyclobutyl 2-(((3-(2-methoxyphenyl)imidazo[1,2-b]pyridazin-6-yl)amino)methyl)pyrrolidine-1-carboxylate], the IC50 at AAK1 [1] was at most 0.01 µM; at AAK1 [2], at most 0.1 µM.

The values above are taken from patent US8969565B2, “Imidazo[1,2-b]pyridazine-based compounds, compositions comprising them, and methods of their use” (Lexicon Pharmaceuticals, Inc., priority 2012, dated 2015).
